Read-outs that look alike come from different tables or passages of the source. One block for each molecule: values may come before it.
Tests used:
[1] = literature values; cited from earlier work
[2] = Metabolic stability in rat hepatocytes; type: in vitro ADME; details: male, Wistar, freshly isolated rat hepatocytes in suspension, 10^6 cells/ml, analysed over 24 h, read-out: T½ (converted)
Source text: Hepatocytes from adult male Wistar rats (IFFA Credo, L'Arbresle, France) were isolated by an in situ liver perfusion using collagenase (purchased from Sigma (St. Louis, Mo., U.S.A), according to a procedure described by Seglen (Preparation of isolated rat liver cell, Methods Cell Biol. 13, 29–83, 1976) and modified by Williams et al. (Rat hepatocyte primary culture. III. Improved dissociation and attachment techniques and the enhancement of survival by culture medium, in vitro 13: 809–817, 1977). After estimation of cell viability by the peripheral refractoriness of intact cells in phase contrast microscopy and the trypan blue test, freshly isolated hepatocytes were washed in basal William's medium E (WME) supplemented with 10% (v/v) fetal calf serum, 70 μM cortisol, 2 mM L-glutamine, 10 mM HEPES buffer, and 4 mM NaOH. […]
Each substance of each concentration will be analysed 10 times during 24 h (1 h, 2 h, 4 h, 6 h, 8 h, 10 h, 12 h, 16 h, 20 h, 24 h).

Pampa Flux (%) Mean ± SEM (PAMPA, 16 h, 500 μM, pH 7): 0%
Molecule: CC[N+](C)(C)Cc1ccccc1Br [Bretylium, reference compound]

Pampa Flux (%) Mean ± SEM (PAMPA, 16 h, 500 μM, pH 7): 72 ± 2%
Molecule: O=c1ccc2ccccc2o1 [Coumarin, reference compound]
flux rates published by Kansy et al. [1]: 66%

Molecule: C[C@]12CCC(=O)C=C1CC[C@@H]1[C@@H]2[C@@H](O)C[C@@]2(C)[C@H]1CC[C@]2(O)C(=O)CO [Hydrocortisone]
flux rates published by Kansy et al. [1]: 52%

PAMPA classification, predicted absorption after peroral application (PAMPA): medium to highly absorbed
Molecule: CC[C@H](C)[C@H](NC(=O)CN(CC)CC)C(=O)N1CCC[C@H]1C(N)=O [N,N-Diethyl-Gly-Ile-ProNH2]

PAMPA classification, predicted absorption after peroral application (PAMPA): medium to highly absorbed
Molecule: CC[C@H](C)[C@H](NC(=O)[C@H]([C@@H](C)CC)N(CC)CC)C(=O)N1CCC[C@H]1C(N)=O [N,N-Diethyl-Ile-Ile-ProNH2, N,N-diethyl-isoleucyl-isoleucyl-prolineamide]

PAMPA classification, predicted absorption after peroral application (PAMPA): medium to highly absorbed
Molecule: CCNC(=O)[C@@H]1CCCN1C(=O)[C@H](Cc1ccccc1)NC(=O)[C@H]([C@@H](C)CC)N(CC)CC [N,N-Diethyl-Ile-Phe-ProNHEt, N,N-diethyl-isoleucyl-phenylalanyl-L-proline ethylamide]

Molecule: CC[C@H](C)[C@H](NC(C)C)C(=O)N[C@H](C(=O)N1CCC[C@H]1C(N)=O)[C@@H](C)CC [N-Isopropyl-Ile-Ile-ProNH2]
PAMPA classification, predicted absorption after peroral application (PAMPA): medium to highly absorbed | half-life [2]: 2.6 h

Molecule: thyreoliberin [TRH, reference compound]
Pampa Flux (%) Mean ± SEM (500 μM in Tris-buffer pH 7,4, diffusion time 16 h): <10% | PAMPA classification, predicted absorption after peroral application (classification by flux rate): weakly absorbed

Source: US7129213B2, “Tripeptides and tripeptide derivatives for the treatment of neurodegenerative diseases” (Neurotell AG, priority 2002, dated 2006)
